Experimental data taken from patent EP0490450A1, “Heterocyclic carboxylic esters, methods for their preparation and their use for the preparation of gastrointestinal medicines” (YAMANOUCHI EUROPE B.V., priority 1990, dated 1992).

Tested on: Helicobacter pylori
Experiment: Paper disc inhibition assay on blood agar plates (inhibition zone)
Assay type: cell-based
Experimental: The test organisms used in the inhibition assay were fresh isolates of Helicobacter pylori from patients with duodenal ulcer or non-ulcer dyspepsia, except strain NCTC 11637 which originates from a deposit freely available to the public. NCTC 11637 is a metronidazole resistant strain. All strains were stored frozen. For each inhibition assay fresh strains were thawed in a waterbath at 37°C. Helicobacter pylori strains were incubated with shaking (150 rpm) for 48 hours in 10 ml brain heart infusion […] containing 7% fetal calf serum at 37°C under an atmosphere of 10% CO₂, 5% O₂ and 85% N₂. After washing with phosphate buffered saline and centrifugation the pellet was resuspended and diluted until a density of 10-20 nephelometric turbidity units was achieved and subsequently smeared on blood agar plates. A paper disc with a diameter of 7 mm was placed in the centre of the plate. The test compounds were dissolved in dimethylsulfoxide (DMSO) and 20 µl of these solutions were applied to the disc. After three days of culturing at 37°C under microaerophilic conditions the inhibition zone was measured in mm.
Table I. In vitro activity of the compounds according to the invention on Helicobacter pylori. Inhibition zones are given in mm, 7 mm means no activity.
Compound GBR 24156, an ester of penicillin V and metronidazole has, in a concentration of 1.7 µg/ml, been compared with the combination of single substances penicillin V and metronidazole, both in a concentration of 0.85 µg/ml.
Table II. In vitro activity of GBR 24156 compared to the activity of penicillin V and metronidazole on Helicobacter pylori. Inhibition zones are given in mm; 7 mm means no activity.

[1] = Helicobacter pylori, 72 h, H. pylori strain A85, concentration 50 µg/ml, 7 mm means no activity
[2] = Helicobacter pylori, 72 h, H. pylori strain C85, concentration 50 µg/ml, 7 mm means no activity
[3] = Helicobacter pylori, 72 h, H. pylori strain D9, concentration 50 µg/ml (20 µl on 7 mm disc), 7 mm means no activity
[4] = Helicobacter pylori, 72 h, H. pylori strain D20, concentration 50 µg/ml, 7 mm means no activity
[5] = Helicobacter pylori, NCTC11637, 72 h, H. pylori strain NCTC 11637 (metronidazole resistant), concentration 50 µg/ml, 7 mm means no activity
[6] = Helicobacter pylori, 72 h, H. pylori strain A85, concentration 20 µg/ml, 7 mm means no activity
[7] = Helicobacter pylori, 72 h, H. pylori strain B104, concentration 20 µg/ml, 7 mm means no activity
[8] = Helicobacter pylori, 72 h, H. pylori strain C85, concentration 20 µg/ml, 7 mm means no activity
[9] = Helicobacter pylori, 72 h, H. pylori strain D9, concentration 20 µg/ml (20 µl on 7 mm disc), 7 mm means no activity
[10] = Helicobacter pylori, 72 h, H. pylori strain D20, concentration 20 µg/ml, 7 mm means no activity
[11] = Helicobacter pylori, 72 h, H. pylori strain D29, concentration 20 µg/ml, 7 mm means no activity
[12] = Helicobacter pylori, NCTC11637, 72 h, H. pylori strain NCTC 11637 (metronidazole resistant), concentration 20 µg/ml, 7 mm means no activity

Compound: Cc1ncc([N+](=O)[O-])n1CCOC(=O)[C@@H]1N2C(=O)[C@@H](NC(=O)COc3ccccc3)[C@H]2SC1(C)C [GBR 24156, 2-(2-Methyl-5-nitroimidazol-1-yl)ethyl (3S,5R,6R)-2,2-dimethyl-6-phenoxy acetamidopenam-3-carboxylate]
- in vitro growth inhibition (in words) (Helicobacter pylori NCTC 11637, known for resistance against metronidazole): able to inhibit in vitro growth
- zone of inhibition at 50 µg/mL (Helicobacter pylori, 72 h, H. pylori strain 88-A-13, concentration 50 µg/ml, 7 mm means no activity): 30 mm
- zone of inhibition at 50 µg/mL [1]: 60 mm
- zone of inhibition at 50 µg/mL (Helicobacter pylori, 72 h, H. pylori strain B104, concentration 50 µg/ml, 7 mm means no activity): 42 mm
- zone of inhibition at 50 µg/mL [2]: 22 mm
- zone of inhibition at 50 µg/mL [3]: 48 mm
- zone of inhibition at 50 µg/mL [4]: 51 mm
- zone of inhibition at 50 µg/mL (Helicobacter pylori, 72 h, H. pylori strain D29, concentration 50 µg/ml, 7 mm means no activity): 77 mm
- zone of inhibition at 50 µg/mL [5]: 41 mm
- zone of inhibition at 1.7 µg/mL (Helicobacter pylori, NCTC11637, 72 h, H. pylori strain NCTC 11637, concentration 1.7 µg/ml, 7 mm means no activity): 19 mm

Compound: Cc1ncc([N+](=O)[O-])n1CCOC(=O)COC(=O)[C@@H]1N2C(=O)[C@@H](NC(=O)COc3ccccc3)[C@H]2SC1(C)C [GBR 24157, [2-(2-Methyl-5-nitroimidazol-1-yl)ethoxy] carbonylmethyl (3S,5R,6R)-2,2-dimethyl-6-phenoxyacetamidopenam-3-carboxylate]
- zone of inhibition at 20 µg/mL [6]: 10 mm
- zone of inhibition at 20 µg/mL [7]: 11 mm
- zone of inhibition at 20 µg/mL [8]: 14 mm
- zone of inhibition at 20 µg/mL [9]: 28 mm
- zone of inhibition at 20 µg/mL [10]: 24 mm
- zone of inhibition at 20 µg/mL [11]: 13 mm
- zone of inhibition at 20 µg/mL [12]: 7 mm

Compound: Cc1ncc([N+](=O)[O-])n1CCOC(=O)OCOC(=O)[C@@H]1N2C(=O)[C@@H](NC(=O)COc3ccccc3)[C@H]2SC1(C)C [GBR 24158, [2-(2-Methyl-5-nitroimidazol-1-yl)ethoxy]carbonyloxymethyl (3S,5R,6R)-2,2-dimethyl-6-phenoxyacetamidopenam-3-carboxylate]
- zone of inhibition at 20 µg/mL [6]: 19 mm
- zone of inhibition at 20 µg/mL [7]: 27 mm
- zone of inhibition at 20 µg/mL [8]: 29 mm
- zone of inhibition at 20 µg/mL [9]: 47 mm
- zone of inhibition at 20 µg/mL [10]: 34 mm
- zone of inhibition at 20 µg/mL [11]: 20 mm
- zone of inhibition at 20 µg/mL [12]: 15 mm

Compound: Cc1ncc([N+](=O)[O-])n1CCOC(=O)C(C)(C)O/N=C(\C(=O)N[C@@H]1C(=O)N(S(=O)(=O)O)[C@H]1C)c1csc(N)n1 [GBR 24164]
- zone of inhibition at 100 µg/mL (Helicobacter pylori, 72 h, H. pylori strain B104, concentration 100 µg/ml, 7 mm means no activity): 20 mm
- zone of inhibition at 100 µg/mL (Helicobacter pylori, 72 h, H. pylori strain C85, concentration 100 µg/ml, 7 mm means no activity): 7 mm
- zone of inhibition at 100 µg/mL (Helicobacter pylori, 72 h, H. pylori strain D9, concentration 100 µg/ml (20 µl on 7 mm disc), 7 mm means no activity): 16 mm
- zone of inhibition at 100 µg/mL (Helicobacter pylori, 72 h, H. pylori strain D20, concentration 100 µg/ml, 7 mm means no activity): 7 mm
- zone of inhibition at 100 µg/mL (Helicobacter pylori, 72 h, H. pylori strain D29, concentration 100 µg/ml, 7 mm means no activity): 12 mm
- zone of inhibition at 100 µg/mL (Helicobacter pylori, NCTC11637, 72 h, H. pylori strain NCTC 11637 (metronidazole resistant), concentration 100 µg/ml, 7 mm means no activity): 7 mm

Compound: Cc1ncc([N+](=O)[O-])n1CCOC(=O)COC(=O)C(C)(C)O/N=C(\C(=O)N[C@@H]1C(=O)N(S(=O)(=O)O)[C@H]1C)c1csc(N)n1 [GBR 24165]
- zone of inhibition at 50 µg/mL [1]: 29 mm
- zone of inhibition at 50 µg/mL [2]: 10 mm
- zone of inhibition at 50 µg/mL [3]: 36 mm
- zone of inhibition at 50 µg/mL [4]: 12 mm
- zone of inhibition at 50 µg/mL [5]: 33 mm

Compound: Cc1ncc([N+](=O)[O-])n1CCOC(=O)COC(=O)[C@@H]1N2C(=O)[C@@H](NC(=O)[C@H](N)c3ccc(O)cc3)[C@H]2SC1(C)C [GBR 24208, [2-(2-Methyl-5-nitroimidazol-1-yl)ethoxy]carbonylmethyl(3S,5R,6R)-6-[(R)-2-amino-2-(4-hydroxyphenyl)acetamido]-2,2-dimethylpenam-3-carboxylate]
- zone of inhibition at 268 µg/mL (Helicobacter pylori, 72 h, H. pylori strain A85, concentration 268 µg/ml, 7 mm means no activity): 10 mm
- zone of inhibition at 268 µg/mL (Helicobacter pylori, 72 h, H. pylori strain D9, concentration 268 µg/ml (20 µl on 7 mm disc), 7 mm means no activity): 15 mm
- zone of inhibition at 268 µg/mL (Helicobacter pylori, NCTC11637, 72 h, H. pylori strain NCTC 11637 (metronidazole resistant), concentration 268 µg/ml, 7 mm means no activity): 10 mm
